Where a name gives a salt, the structure may show the parent alone. Read-outs that look alike come from different tables or passages of the source. Marks after values point to notes of the source that are not given here.
What was measured:
[1] = test system: isolated myocardial cells; assay: Inhibition of veratrine-induced contracture of isolated myocardial cells; format: cell-based; details: Rattus norvegicus; veratrine 100 μg/mL, test compound 30 minutes before
Procedure: Specifically, the heart removed from the rat according to the Langendorff's method was treated with an enzyme, and isolated myocardial cells were obtained. The myocardial cells were inoculated on a 48 multi-well plate (3548 Coster) previously coated with poly-L-lysine at a rate of 1×10^4 cells/well. The plate was kept at 37° C. for 1 hour while being exposed to a flow of gas comprising 95% O2 and 5% CO2, to allow the cells to adhere to the bottom of each well. Then, the test compound was added to each well, and allowed to be there for 30 minutes, and […] to each well to 100 μg/mL. Five minutes later, the cells of each well was checked for their morphological changes, and the changes were photographed. If the cells' shape changed from a rod-like one into a ball-like one in the presence of veratrine, the cells were regarded as falling to contracture as a result of the exposure to veratrine. The inhibitory effect of the test compound on the contracture was determined by the probit method, and was expressed in terms of IC50. Veratrine is a mixture of […] alkaloids. If veratrine is applied to isolated myocardial cells, the cells which take a rod-like shape in a normal state will fall to contracture, taking a ball-like shape. Veratrine, when applied to isolated myocardial cells, is thought to cause a persistent sodium current in the cells, by suppressing the inactivation of the sodium channel in the cells, which leads to the contracture of the cells (Donck et al., ibid).

[2] = test system: formalin-induced nociceptive response; assay: Formalin-induced nociceptive response in rats; format: in vivo, rat; details: for inhibition in vivo at 10 mg/kg: Rattus norvegicus, po, 10 mg/kg orally 30 minutes before formalin
Procedure: Specifically, 25 μL of 0.5% formalin solution was subcutaneously injected into the left foot pad of the rat, and then each behavior of the rat consisting of the licking or biting of the pad immediately following the injection was checked with a stopwatch for its duration, and its cumulative duration was recorded at five minute intervals. […] The test compound was orally applied to the rat 30 minutes before the subcutaneous injected of formalin. Then, the inhibitory effect of the test compound on the nociceptive response induced by the formalin injection was calculated according to the following formula. To mention, for illustration, the inhibitory effect of carbamazepine, an agent to serve as a comparative example, if it is orally applied at 50 mg/kg, it inhibits the first-phase response by 52%, while it inhibits the second-phase response by 59%. Percent inhibition (%) -[([…]]×100 wherein […] is the response time (sec) of the test group which received formalin and the test compound, while PRcontol is the response time of the control group which received formalin alone.

[3] = molecular target: batrachotoxin receptors in the synaptosome from the rat brain (sodium channel); assay: Inhibition of the binding of batrachotoxin to receptors in rat brain synaptosome; details: 1.5 nM tritiated batrachotoxin A20-alfa-benzoate, 100 μM veratridine, 37° C., 30 minutes
[4] = test system: transient sodium current in neuroblastoma cells; assay: Voltage-clamp, transient sodium current; details: at 53 μM
Procedure: This experiment was undertaken by the method disclosed by Verdonck et al., Eur. J. Pharmacol., 203:371, 1991. Neuroblastoma cells were used. Isolated cells were strewn over a recording chamber filled with perfusion fluid; the membrane currents are recorded in a whole cell configuration by the voltage-clamp method based on the use of a glass microcapillary. Current components due to ions other than sodium ion were eliminated as follows. The potassium current was removed by cesium ion introduced in the capillary, and the calcium current was removed by cobalt ion added to the perfusion fluid. Measurement of the transient sodium current of the cells was achieved by applying depolarizing pulses at appropriate intervals to the cells clamped at holding potential, and by observing a transient inward current elicited therewith.

[5] = test system: Crj:CD(SD) IGS female rats; assay: Toxicological study, 14-day oral gavage; details: 5 or 10 mg/kg/day orally once daily for 14 days
[6] = test system: response threshold to a mechanical stimulus; assay: Rat model made by loosely constricting the sciatic nerve (Bennett), von Frey threshold; format: in vivo; details: constriction, 1 hour after dosing
Procedure: (“Pain,” 33:87, 1988). Specifically, the rat was anesthetized with i.p. injection of pentobarbital sodium at 40 mg/kg; the overlying skin was cut open; and the left biceps femoris muscle was bluntly separated. The sciatic nerve was isolated from surrounding tissues; it was gently constricted at four sites about 1 mm apart from each other by the use of surgical gut sutures (4-0); the operated part was closed; and the rat was returned to its cage for further feeding. For the rat belonging to the sham-surgery group, the same operation was performed except that the sciatic nerve was left untouched. Two weeks after the surgery, the response threshold to a mechanical stimulus consisting of touch with a von Frey filament was determined. The test proceeded as follows: the test compound dissolved or suspended in a solvent (0.5% aqueous solution of hydroxypropylmethyl cellulose) was orally applied to the rat having the sciatic nerve constricted; one hour later, von Frey hairs were applied against the foot pad (spots ranging from heel to the mid-point of foot) one after another in an ascending order of their stiffness; if the rat raises its foot when a certain von Frey hair was applied, the stimulus intensity of that hair was taken as the response threshold (maximum stimulus intensity being 28.84g).

[7] = 10 min, first 10 minutes, read-out: Response inhibition, 1st phase
[8] = 0.75 h, 10 to 45 minutes, read-out: Response inhibition, 2nd phase

Row | SMILES | melting point | inhibition in vivo at 10 mg/kg [2, 7] | inhibition in vivo at 10 mg/kg [2, 8] | IC50 [3] | further results
1 | CC(C)Oc1ccc(NCCC2(O)CCN(CCc3ccc(C#N)cc3)CC2)cc1.Cl.Cl | 197.3 °C (dec.) | – | – | – | –
2 | CC(C)Oc1ccc(N(C)CCC2(O)CCN(CCc3ccccc3)CC2)cc1.Cl.Cl [Example 50, 4-[2-[N-methyl-N-(4-isopropoxyphenyl)-amino]ethyl]-1-(2-phenylethyl)piperidin-4-ol dihydrochloride] | 189.7 to 192.6 °C | 44% | 64% | 0.3 µM | IC50 [1]: 1.51 µM
3 | CC(C)Oc1ccc(N(C)CCC2(O)CCN(CCc3ccc(C#N)cc3)CC2)cc1.Cl.Cl [Example 51, 1-[2-(4-cyanophenyl)ethyl]-4-[2-[N-methyl-N-(4-isopropoxyphenyl)amino]ethyl]piperidin-4-ol dihydrochloride] | – | 46% | 67% | 0.61 µM | IC50 [1]: 1.56 µM; Decrease of the peak value of the transient inward current [4]: 18%; Body weight [5]: no loss in the weight; General conditions [5]: no notable abnormalities in general conditions; Histopathological examination [5]: no abnormal findings were obtained; Survival during treatment period [5]: All the rats survived; Mean threshold, normal foot (right) ([6]; 2.5 mg/kg oral): 16.43 g; Mean threshold, test foot (left) ([6]; 2.5 mg/kg oral): 8.33 g; Mean threshold, normal foot (right) ([6]; 5 mg/kg oral): 16.43 g; Mean threshold, test foot (left) ([6]; 5 mg/kg oral): 12.63* g; Mean threshold, normal foot (right) ([6]; 10 mg/kg oral): 16.85 g; Mean threshold, test foot (left) ([6]; 10 mg/kg oral): 15.58** g
4 | CC(C)Oc1ccc(N(C)CCC2(O)CCN(CCc3ccc(F)cc3)CC2)cc1.Cl.Cl [Example 55, 1-[2-(4-fluorophenyl)ethyl]-4-[2-[N-methyl-N-(4-isopropoxyphenyl)amino]ethyl]piperidin-4-ol dihydrochloride] | 252 °C (dec.) | 30% | 55% | 0.28 µM | IC50 [1]: 1.34 µM
5 | CC(C)Oc1ccc(N(C)CCC2(O)CCN(CCc3ccc([N+](=O)[O-])cc3)CC2)cc1 [Example 56, 4-[2-[N-methyl-N-(4-isopropoxyphenyl)amino]ethyl]-1-[2-(4-nitrophenyl)ethyl]piperidin-4-ol dihydrochloride] | – | 40% | 70% | – | –
6 | CC(C)Oc1ccc(N(C)CCC2(O)CCN(CCc3cccc(F)c3)CC2)cc1 [Example 58, 1-[2-(3-fluorophenyl)ethyl]-4-[2-[N-methyl-N-(4-isopropoxyphenyl)amino]ethyl]piperidin-4-ol dihydrochloride] | – | 29% | 56% | – | –
7 | CC(C)Oc1ccc(N(C)CCC2(O)CCN(CCc3ccc(Cl)cc3)CC2)cc1 [Example 60, 1-[2-(4-chlorophenyl)ethyl]-4-[2-[N-methyl-N-(4-isopropoxyphenyl)amino]ethyl]piperidin-4-ol dihydrochloride] | – | 61% | 92% | – | –
8 | CC(C)Oc1ccc(N(C)CCC2(O)CCN(CCc3ccccc3C(F)(F)F)CC2)cc1 [Example 65, 4-[2-[N-methyl-N-(4-isopropoxyphenyl)amino]ethyl]-1-[2-[2-(trifluoromethyl)phenyl]ethyl]piperidin-4-ol dihydrochloride] | – | 93% | 96% | – | –
9 | CC(C)Oc1ccc(N(C)CCC2(O)CCN(CCc3ccoc3)CC2)cc1.Cl.Cl [Example 84, 1-[2-(3-furyl)ethyl]-4-[2-[N-methyl-N-(4-isopropoxyphenyl)amino]ethyl]piperidin-4-ol dihydrochloride] | 202.6 to 203.9 °C | 23% | 49% | – | –
10 | CC(C)Oc1ccc(N(C)CCC2(O)CCN(CCc3cccs3)CC2)cc1.Cl.Cl [Example 86, 4-[2-[N-methyl-N-(4-isopropoxyphenyl)amino]ethyl]-1-[2-(2-thienyl)ethyl]piperidin-4-ol dihydrochloride] | 203 to 204.5 °C | 19% | 62% | – | IC50 [1]: 1.65 µM
11 | CCOc1ccc(N(C)CCC2(O)CCN(CCc3ccc(C#N)cc3)CC2)cc1.Cl.Cl [Example 90, 1-[2-(4-cyanophenyl)ethyl]-4-[2-[N-(4-ethoxyphenyl)-N-methylamino]ethyl]piperidin-4-ol dihydrochloride] | 214 to 215.2 °C | 55% | 65% | – | –
12 | CC(C)Oc1ccc(N(C)CC2(O)CCN(CCc3ccc(C#N)cc3)CC2)cc1.Cl.Cl [Example 96, 1-[2-(4-cyanophenyl)ethyl]-4-[N-methyl-N-(4-isopropoxyphenyl)aminomethyl]piperidin-4-ol dihydrochloride] | 202.8 to 203.4 °C | 74% | 69% | – | –
13 | NC(=O)N1c2ccccc2C=Cc2ccccc21 [carbamazepine, reference compound] | – | – | – | ≥ 300 µM | Inhibition of the first-phase response ([2]; orally applied at 50 mg/kg): 52%; Inhibition of the second-phase response ([2]; orally applied at 50 mg/kg): 59%; Mean threshold, normal foot (right) ([6]; 50 mg/kg oral): 19.85 g; Mean threshold, test foot (left) ([6]; 50 mg/kg oral): 8.97 g; Mean threshold, normal foot (right) ([6]; 100 mg/kg oral): 27.13 g; Mean threshold, test foot (left) ([6]; 100 mg/kg oral): 19.43** g
14 | Cc1cccc(C)c1OCC(C)N (centres unmarked) [mexiletine, reference compound] | – | – | – | 17 µM | –
15 | O=C1NC(=O)C(c2ccccc2)(c2ccccc2)N1 [phenytoin, reference compound] | – | – | – | 51 µM | –

Source: US6642257B2, “Agents for treating neuropathic pain” (Mochida Pharmaceutical Co., Ltd., priority 1999, dated 2003)
